Assay results as given in PubChem BioAssay AID1919015 (Molecular Pharmacology Branch, DTP, NCI, 2023).
“And” between values parts separate entries of the source, which are not always exact repeats. Identical values can stand only once.

System: OVCAR-5 complex spheroids with HUVEC/MSC, viability, % test/control
Experiment: Anticancer human tumor OVCAR-5 cell line growth inhibition [AhR];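 also: spheroids exposed to compounds for 7 days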;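 as to viability, T/C: 100% = DMSO vehicle control wells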
Settings: for viability, T/C: stronger effect = lower value
Excerpt: Multicellular complex tumor spheroid response to aryl hydrocarbon receptor antagonists in combination with a variety of drugs and investigational agents in selected tumor cell lines
The current study was undertaken to assess response to aryl hydrocarbon receptor antagonists in combination with standard-of-care drugs and investigational agents in solid tumor complex spheroid models. Complex spheroids include a stromal component modeled by human endothelial cells (HUVEC) and fibroblasts modeled by human mesenchymal stem cells (MSCs). The concentration ranges selected for each drug and investigational agent were based upon clinically achievable concentrations if the clinical Cmax of the agent was known.
Compounds. The drugs and investigational agents: BAY 2416964 (NSC825713), GNF351 (NSC835774), CH-223191 (NSC835775), CPI-455 (NSC825282), aza-TdCyd (NSC777586), decitabine (NSC127716), belinostat (NSC758774), entinostat (NSC756642), pevonedistat (NSC761192), tazemetostat (NSC777109), talazoparib (NSC765396), olaparib (NSC753686), selinexor (NSC780203), nedisertib (M3814, NSC802822), bortezomib (NSC756655), venetoclax (NSC766270), doxorubicin (NSC123127), elimusertib (BAY189344, NSC800525), ceralasertib (AZD6738, NSC777638), TAK-243 (NSC785004), alisertib (NSC759677), etoposide (NSC141540), topotecan (NSC609699), eribulin (NSC707389), gemcitabine (NSC613327), carboplatin (NSC241240), cisplatin (NSC119875), and SN-38 (NSC673596) were obtained from the National Cancer Institute (NCI) Developmental Therapeutics Program Chemical Repository (32). The FDA-approved anticancer drug set is available from the Developmental Therapeutics Program at https://dtp.cancer.gov/organization/dscb/obtaining/available plates.htm. […] The stock solutions were prepared in dimethyl sulfoxide (DMSO, Sigma-Aldrich, St. Louis, MO, cat. D2650), except for the platinum compounds which were prepared in saline (Quality Biological, Gaithersburg, MD, cat. 114-055-101), at 800-fold the tested concentration and stored at -70 degrees C prior to their use. All drugs and investigational agents were tested over a range starting from a high concentration at or near the clinical Cmax and decreasing in half-log increments. If the clinical Cmax for an agent had not been determined, the highest concentration tested was 10 microM (Table 1).
Cell Culture. All cells were maintained in an incubator at 37 degrees C and 5% CO2 with 95% humidity. The PDC lines were cultured according to standard operating procedures established by the NCI PDMR (https://pdmr.cancer.gov). Briefly, all PDCs were thawed and cultured in Matrigel-coated flasks prepared with a working solution of 1X Ham's F-12 nutrient mix, without supplementation (Invitrogen, Waltham, MA, cat. 11765054), 100 U/mL penicillin-streptomycin (Invitrogen, cat. 15140122), and 2.5% Matrigel (Corning Inc., Corning, NY, cat. 354248) for the first three passages. All PDCs were cultured in complete DMEM/F-12 media containing advanced DMEM/F-12 (Invitrogen, cat. 12634028), 4.9% defined fetal bovine serum, heat inactivated (HyClone Laboratories Inc., Logan, UT, cat. SH30070.03HI), 389 ng/mL hydrocortisone (Sigma-Aldrich, cat. H4001), 9.7 ng/mL human EGF recombinant protein (Invitrogen, cat. PHG0313), 23.4 microg/mL adenine (Sigma-Aldrich, cat. A2786), 97.3 U/mL penicillin-streptomycin (Invitrogen, cat. 15140122), 1.9 mM L-glutamine (Invitrogen, cat. 25030081), and 9.7 microM Y-27632 dihydrochloride (Tocris Bioscience, Bristol, United Kingdom, cat. 1254). The PDCs were cultured in complete DMEM/F12 media without 10 microM Y-27632 dihydrochloride for at least two passages prior to the screen. The established cell lines NCI-H1341 and […] were cultured in DMEM/F-12, HEPES (Invitrogen, cat. 11330032), 5% defined fetal bovine serum (HyClone Laboratories Inc., cat. SH30070.03), ITS premix universal culture supplement [insulin (5 microg/mL), transferrin (5 microg/mL), and selenious acid (5 ng/mL)] […]

Structure (SMILES)	viability, T/C (compound 0.0316 µM)	viability, T/C (compound 0.1 µM)	viability, T/C (compound 0.316 µM)	viability, T/C (compound 1 µM)	viability, T/C (compound 3.16 µM)	viability, T/C (compound 10 µM)	IC50 (curve of compound)	IC50 (compound alone, run of 08/08/2022) [µM]	IC50 (compound alone, run of 08/22/2022) [µM]	IC50 (compound alone, run of 08/16/2022)
CC(C)c1c(-c2ccccc2)nc2c(C#N)c[nH]n2c1=O	103% and 100% and 101%	103% and 99.8% and 106%	104% and 101% (2×)	105% and 104% and 101%	105% (2×) and 103%	109% and 106% (2×)	> 10 µM	–	–	–
CC(CO)NC(=O)c1cc(-c2ccc(Cl)cc2)nn(-c2cnn(C)c2)c1=O (centres undefined)	–	107% [middle of 20 runs]	108% [middle of 21 runs]	114% [middle of 21 runs]	103% [middle of 19 runs]	98.4% [middle of 19 runs]	–	> 10	–	–
CC1(C)CCC(CN2CCN(c3ccc(C(=O)NS(=O)(=O)c4ccc(NCC5CCOCC5)c([N+](=O)[O-])c4)c(Oc4cnc5[nH]ccc5c4)c3)CC2)=C(c2ccc(Cl)cc2)C1	101% and 99.7% and 103%	99.9% and 101% and 107%	102% and 97.2% and 103%	103% (2×) and 98.7%	108% and 98.8% and 114%	92% and 56.4% and 56%	> 10 µM	–	–	–
CC1COCCN1c1cc(C2(S(C)(=N)=O)CC2)nc(-c2ccnc3[nH]ccc23)n1 (centres undefined)	101% and 102% and 99.5%	101% (2×) and 99.1%	104% and 102% and 96.8%	100% and 97.1% and 98%	89.4% and 71.8% and 75.2%	46.7% and 37% and 41%	9.16 µM and 6.5 µM and 7.4 µM	–	–	–
COc1cc(Nc2ncc3c(n2)-c2ccc(Cl)cc2C(c2c(F)cccc2OC)=NC3)ccc1C(=O)O	88% and 84.9% and 84.8%	79.3% and 80.2% and 76.8%	61.4% and 57.7% and 55.4%	58.3% and 55.7% and 50.5%	51.2% and 49.3% and 47%	42.7% and 41.6% and 39.5%	2.92 µM and 1.77 µM and 1.25 µM	–	–	–
COc1ccc([C@@H](O)c2cc(-c3ncnc4cc(N5CCOCC5)ccc34)c(F)cc2Cl)nn1	104% and 96.5% and 91.2%	101% and 96.4% and 97.7%	95.6% and 86.5% and 85%	76.2% and 70.7% and 63.6%	48.4% and 41.8% and 38.3%	23% and 23.6% and 18.7%	2.93 µM and 2.29 µM and 1.85 µM	–	–	–
Cc1ccccc1N=Nc1ccc(NC(=O)c2ccnn2C)c(C)c1	–	103% [middle of 20 runs]	108% [middle of 20 runs]	110% [middle of 20 runs]	113% [middle of 20 runs]	105% [middle of 20 runs]	–	–	> 10	–
Cc1cncc(-c2nc(NCCc3c[nH]c4ccccc34)c3ncn(C(C)C)c3n2)c1	–	98.8% [middle of 20 runs]	97.6% [middle of 19 runs]	92.7% [middle of 20 runs]	78.4% [middle of 20 runs]	–	–	–	–	5.52 µM [middle of 22 runs]
NS(=O)(=O)OCC1CC(n2ccc3c(NC4CCc5ccccc54)ncnc32)CC1O (centres undefined)	99.8% and 98.4% and 111%	74.2% and 68.1% and 75%	41.8% and 38.4% and 42.8%	21.2% and 16.9% and 19.1%	14.8% and 11.5% and 13%	11.8% and 9.65% and 11.2%	0.235 µM and 0.197 µM	–	–	–
